Measurements as given in patent US20250042968A1, “EPHRIN LIGAND MIMETIC PEPTIDES FOR THE TREATMENT OF NEURODEGENERATIVE DISEASES” (University of Miami, priority 2022, published 2025).
Entries after “also recorded” stand apart in the source; their conditions may differ.

Legend:
RhoA = assay: Western blot of RhoA in mRGCs; type: cell-based, mouse; conditions: 500 nM
Description: On day 4, cells were treated with pre-clustered recombinant mouse EfnA5-His ligand [(+) Control, using anti-His_Tag antibody for 30 minutes] for 2 hours. Cells were then lysed in RIPA buffer containing protease and phosphatase inhibitor cocktails and maintained on ice. Protein was quantified using a BCA assay, and 10 μg of total protein was run on a TGX stain-free Any kD gel (BioRad) and transferred using the trans-blot turbo system (BioRad). Following transfer and blocking in 5% nonfat milk for 1 h, blots were probed with antibodies against RhoA, phosphorylated Rac1, ARHGEF15, Ephexin-1, or beta-actin as an endogenous loading control overnight at 4° C. Blots were then washed 3×5 min in PBS-T and incubated in the appropriate HRP-conjugated secondary antibody for 2 h at room temperature. Blots were imaged using chemiluminescent ECL substrate (Pierce) on a BioRad ChemiDoc MP imaging system and software.

EphB2 = biological target: T1, EphB2 (Mus musculus, UniProt P54763); assay: Western blot of EphB2 expression in isolated mouse RGCs; type: cell-based; conditions: 1 μM, 4 days
T1 construct: endogenous in cells; host or cells: primary mouse retinal ganglion cells
T1 sequence (P54763 19-986): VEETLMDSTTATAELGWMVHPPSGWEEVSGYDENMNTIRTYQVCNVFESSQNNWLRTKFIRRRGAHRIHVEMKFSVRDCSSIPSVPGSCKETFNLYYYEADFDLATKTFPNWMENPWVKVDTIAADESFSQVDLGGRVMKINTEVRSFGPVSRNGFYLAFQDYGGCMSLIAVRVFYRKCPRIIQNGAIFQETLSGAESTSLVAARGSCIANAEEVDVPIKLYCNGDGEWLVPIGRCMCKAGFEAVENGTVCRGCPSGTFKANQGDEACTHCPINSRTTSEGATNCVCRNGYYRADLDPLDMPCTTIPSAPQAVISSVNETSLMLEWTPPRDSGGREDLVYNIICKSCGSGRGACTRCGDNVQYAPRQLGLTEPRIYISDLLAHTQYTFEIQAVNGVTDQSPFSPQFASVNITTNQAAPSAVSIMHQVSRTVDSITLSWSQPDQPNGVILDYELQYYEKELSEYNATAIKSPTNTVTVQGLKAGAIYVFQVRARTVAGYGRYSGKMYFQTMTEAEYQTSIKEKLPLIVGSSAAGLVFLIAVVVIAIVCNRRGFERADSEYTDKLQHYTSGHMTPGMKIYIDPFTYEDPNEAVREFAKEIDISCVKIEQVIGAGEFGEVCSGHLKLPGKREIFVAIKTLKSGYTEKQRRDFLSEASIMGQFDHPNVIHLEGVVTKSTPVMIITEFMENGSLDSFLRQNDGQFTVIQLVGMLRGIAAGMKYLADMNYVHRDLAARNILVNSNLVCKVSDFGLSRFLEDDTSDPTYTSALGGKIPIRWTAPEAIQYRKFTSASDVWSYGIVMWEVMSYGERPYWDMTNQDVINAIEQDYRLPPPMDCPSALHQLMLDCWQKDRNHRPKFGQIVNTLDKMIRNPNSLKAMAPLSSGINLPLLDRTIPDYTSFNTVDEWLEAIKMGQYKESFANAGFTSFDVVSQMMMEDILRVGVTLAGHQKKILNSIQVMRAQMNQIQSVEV
From the text: (§1) In order to assess the effect of xEFN peptide supplementation on Eph-receptor modulation, various in vitro assays were employed on isolated mouse RGCs. […] Similarly, xEFN_RBD1, and 3 inhibited the phosphorylation of Rac1 by pre-clustered ephirnA5 ligand stimulation. […] TUBB3 is a marker specific for neuronal microtubules and functions as a neuronal-specific marker.

isolated mouse RGCs = assay: Immunofluorescent staining of TUBB3 and F-actin in isolated mouse RGCs; type: cell-based; conditions: 1 μM, 4 days
From the text: as §1

[1] = system: human fetal brain-derived neural stem cells (hNSC); assay: hNSC growth on ephrin-ligand repulsive substrates; type: cell-based; conditions: 500 nM, 5-day culture, over control cultures
Description: Fetal brain-derived neural stem cells (hNSC): In order to evaluate the effect of xEFN peptides on human neuronal cells, StemPro hNSC were purchased from ThermoFisher Scientific (Cat. no. A15654) and cultured according to the manufacturer's recommended protocol. Briefly, cells were grown in non-adherent neurosphere suspension cultures in StemPro NSC serum-free media (NSC-SFM) (Cat. no. A10509-01) supplemented with 2 mM GlutaMAX-I supplement, 6 U/mL heparin, and 200 μM ascorbic acid (Sigma-Aldrich, Cat. no. A8960). Culture media was changed every 2 days and cells were passaged every 7 days as undifferentiated hNSC. To induce differentiation into neuronal cells, hNSC neurospheres were dissociated into single-cell suspensions using StemPro Accutase for 5 minutes at 37° C. followed by mechanical pipetting. hNSC were then plated onto Geltrex-coated culture vessels at a concentration of 2×10^4 cells/cm^2 in neuronal differentiation media consisting of NSC media without bFGF or EGF and supplemented with B-27 supplement (ThermoFisher Scientific) for 3 days prior to performing further in vitro assays.
Glial-bound efn ligands have been associated with mediating the major repulsive milieu for neuronal process in the CNS. […] Moreover, assays on the repulsive nature of efn ligand-presenting surfaces have been a mainstay in axonal guidance studies for many decade. The use of xEFN peptides to antagonize this repulsive signaling from efn ligand substrates was evaluated on human fetal brain-derived neural stem cells (hNSC).
Recombinant Efn ligands (A2, A4, and B3) containing a His-Tag were purchased from R&D Systems, and were pre-clustered using an anti-His antibody (Genetex) for 30 min. The pre-clustered Efn ligands, or anti-his antibody alone, (control) were then mixed with laminin from human placenta (Sigma-Aldrich) in suspension and used to coat the growth surface of a 24-well plate. […] The entire wells were then scanned using an EVOS FL Auto fluorescent microscope and the images were analyzed in the ImageJ software to calculate cell coverage area.

What does the source list for FTIKFQEFSPNLWGL [xEFN_RBD3]?
expression of the GTPase RhoA (RhoA): downregulates; expression of EphB2 (western blot) (EphB2): reduced expression; also recorded: effectively decreased expression; neuroprotection seen by TUBB3 expression versus control in vitro cultures (isolated mouse RGCs): neuroprotection; also recorded: effectively preserved RGCs; confluence coverage on efnA2 substrate [1]: 120.62+/−10.89%; confluence coverage on efnA4 substrate [1]: 125.83+/−2.92%; confluence coverage on efnB3 substrate [1]: 96.51+/−7.15%
